Biological target: T1, Angiotensin-converting enzyme (Rattus norvegicus) (UniProt P47820)
T1 sequence (whole entry): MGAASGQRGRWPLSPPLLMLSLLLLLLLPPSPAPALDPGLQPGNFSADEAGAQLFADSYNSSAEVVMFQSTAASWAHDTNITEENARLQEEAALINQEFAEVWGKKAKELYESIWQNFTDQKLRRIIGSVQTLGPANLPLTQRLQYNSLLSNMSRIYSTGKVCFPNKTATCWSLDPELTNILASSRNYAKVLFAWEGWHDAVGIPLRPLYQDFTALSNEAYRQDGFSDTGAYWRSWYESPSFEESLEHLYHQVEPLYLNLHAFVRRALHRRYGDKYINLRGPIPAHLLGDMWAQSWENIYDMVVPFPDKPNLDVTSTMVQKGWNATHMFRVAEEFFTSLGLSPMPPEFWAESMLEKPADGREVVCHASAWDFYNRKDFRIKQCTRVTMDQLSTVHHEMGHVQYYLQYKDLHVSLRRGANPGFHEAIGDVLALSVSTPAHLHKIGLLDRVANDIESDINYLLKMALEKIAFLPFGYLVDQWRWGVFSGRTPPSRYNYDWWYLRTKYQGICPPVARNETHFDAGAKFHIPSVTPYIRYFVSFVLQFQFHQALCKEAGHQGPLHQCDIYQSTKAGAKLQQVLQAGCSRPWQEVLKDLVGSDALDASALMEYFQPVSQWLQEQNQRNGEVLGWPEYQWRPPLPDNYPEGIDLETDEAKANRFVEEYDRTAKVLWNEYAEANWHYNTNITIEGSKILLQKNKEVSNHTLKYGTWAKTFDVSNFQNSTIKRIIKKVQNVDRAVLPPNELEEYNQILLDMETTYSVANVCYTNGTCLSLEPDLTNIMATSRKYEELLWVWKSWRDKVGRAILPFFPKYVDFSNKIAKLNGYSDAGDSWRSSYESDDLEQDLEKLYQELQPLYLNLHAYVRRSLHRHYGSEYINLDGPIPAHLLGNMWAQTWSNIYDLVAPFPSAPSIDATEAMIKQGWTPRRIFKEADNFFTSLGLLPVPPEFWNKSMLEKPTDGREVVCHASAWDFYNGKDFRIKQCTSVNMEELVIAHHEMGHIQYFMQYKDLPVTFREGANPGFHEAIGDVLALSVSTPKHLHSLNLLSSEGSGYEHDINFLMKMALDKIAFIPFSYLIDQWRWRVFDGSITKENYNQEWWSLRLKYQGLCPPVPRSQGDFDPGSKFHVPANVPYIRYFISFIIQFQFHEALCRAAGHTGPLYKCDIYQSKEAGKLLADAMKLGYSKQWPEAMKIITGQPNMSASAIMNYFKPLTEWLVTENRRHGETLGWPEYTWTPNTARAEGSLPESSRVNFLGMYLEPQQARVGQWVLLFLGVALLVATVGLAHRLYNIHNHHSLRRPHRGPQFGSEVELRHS
Experiment: In vivo inhibition of ACE in iv dosed rat assessed as inhibition of Ang1 induced pressor response
Format: functional, organism-based

Row | Structure (SMILES) | ED50 [µmol/kg]
1 | C[C@H](NC(=O)[C@@H](CS)Cc1ccccc1)C(=O)N1Cc2ccccc2C[C@H]1C(=O)O | 0.57
2 | O=C(O)CN1C(=O)[C@@H](NC(=O)[C@@H](S)Cc2ccccc2)CCc2ccccc21 | 0.02
3 | C[C@H](NC(=O)[C@@H](S)Cc1ccccc1)C(=O)N1CCC[C@H]1C(=O)O | 0.06

Next, values leading:

Row | ED50 [µmol/kg] | Structure (SMILES)
4 | 0.15 | C[C@H](NC(=O)[C@@H](CS)Cc1ccccc1)C(=O)N1c2ccccc2C[C@H]1C(=O)O
5 | 0.5 | C[C@H](NC(=O)[C@@H](CS)Cc1ccccc1)C(=O)N1CCC[C@H]1C(=O)O

Biological target: T2, B2 bradykinin receptor (Homo sapiens) (UniProt P30411)
T2 sequence (whole entry): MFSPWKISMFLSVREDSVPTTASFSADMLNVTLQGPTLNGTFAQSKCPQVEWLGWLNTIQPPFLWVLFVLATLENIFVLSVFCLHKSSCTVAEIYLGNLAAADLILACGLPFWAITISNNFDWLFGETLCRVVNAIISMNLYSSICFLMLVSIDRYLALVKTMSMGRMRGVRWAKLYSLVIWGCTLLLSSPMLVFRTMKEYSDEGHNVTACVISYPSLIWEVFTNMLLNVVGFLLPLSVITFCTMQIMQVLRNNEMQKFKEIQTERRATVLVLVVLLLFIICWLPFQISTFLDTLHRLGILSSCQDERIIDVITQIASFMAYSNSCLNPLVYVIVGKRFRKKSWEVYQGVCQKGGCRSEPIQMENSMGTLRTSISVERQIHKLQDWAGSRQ
Experiment: Inhibition of B2 bradykinin receptor (unknown origin) at 10 mM relative to control

Row | inhibition [%] | Structure (SMILES)
6 | 54 | C[C@@H](C(=O)N[C@@H](CCCNC(=N)N)C(=O)O)N1Cc2ccccc2C[C@@H](NC(=O)[C@H](CO)NC(=O)[C@H](Cc2ccccc2)NC(=O)CNC(=O)[C@@H]2CCCN2C(=O)[C@@H]2CCCN2C(=O)[C@@H](N)CCCNC(=N)N)C1=O
